Test results as given in patent US20050113292A1 (priority 2003, published 2005).

CC[C@H](C)[C@H](NC(=O)[C@H](CC(C)C)NC(=O)[C@H](CO)NC(=O)[C@H](Cc1c[nH]cn1)NC(=O)[C@@H](NC(=O)[C@H](CC(C)C)NC(=O)[C@H](CO)NC(=O)[C@@H](NC(=O)[C@H](Cc1ccc(O)cc1)NC(=O)[C@H](CC(N)=O)NC(=O)[C@H](CC(N)=O)NC(=O)[C@@H](NC(=O)[C@H](CCC(=O)O)NC(=O)[C@H](CCCNC(=N)N)NC(=O)[C@H](CC(=O)O)NC(=O)[C@H](Cc1c[nH]c2ccccc12)NC(=O)[C@H](CCC(=O)O)NC(=O)[C@H](CCSC)NC(=O)[C@H](Cc1c[nH]c2ccccc12)NC(=O)[C@@H]1CSC(C(=O)N[C@@H](CCCCNC(=O)CCCCCNC(=O)CCCCCNC(=O)[C@H](CCCCNC(=O)CCCCCNC(=O)CCCCCNC(=O)CCCCCNC(=O)[C@H](CCCCN)NC(=O)C2N[C@H](C(=O)N[C@@H](Cc3c[nH]c4ccccc34)C(=O)N[C@@H](CCSC)C(=O)N[C@@H](CCC(=O)O)C(=O)N[C@@H](Cc3c[nH]c4ccccc34)C(=O)N[C@@H](CC(=O)O)C(=O)N[C@@H](CCCNC(=N)N)C(=O)N[C@@H](CCC(=O)O)C(=O)N[C@H](C(=O)N[C@@H](CC(N)=O)C(=O)N[C@@H](CC(N)=O)C(=O)N[C@@H](Cc3ccc(O)cc3)C(=O)N[C@H](C(=O)N[C@@H](CO)C(=O)N[C@@H](CC(C)C)C(=O)N[C@H](C(=O)N[C@@H](Cc3c[nH]cn3)C(=O)N[C@@H](CO)C(=O)N[C@@H](CC(C)C)C(=O)N[C@H](C(=O)N[C@@H](CCC(=O)O)C(=O)N[C@@H](CCC(=O)O)C(=O)N[C@@H](CO)C(=O)N[C@@H](CCC(N)=O)C(=O)N[C@@H](CC(N)=O)C(=O)N[C@@H](CCC(N)=O)C(=O)N[C@@H](CCC(N)=O)C(=O)N[C@@H](CCC(=O)O)C(=O)N[C@@H](CCCCN)C(=O)N[C@@H](CC(N)=O)C(=O)N[C@@H](CCC(=O)O)C(=O)N[C@@H](CCC(N)=O)C(=O)N[C@@H](CCC(=O)O)C(=O)N[C@@H](CC(C)C)C(=O)N[C@@H](CC(C)C)C(=O)O)[C@@H](C)CC)[C@@H](C)CC)[C@@H](C)O)[C@@H](C)CC)CS2)NC(=O)C2N[C@H](C(=O)N[C@@H](Cc3c[nH]c4ccccc34)C(=O)N[C@@H](CCSC)C(=O)N[C@@H](CCC(=O)O)C(=O)N[C@@H](Cc3c[nH]c4ccccc34)C(=O)N[C@@H](CC(=O)O)C(=O)N[C@@H](CCCNC(=N)N)C(=O)N[C@@H](CCC(=O)O)C(=O)N[C@H](C(=O)N[C@@H](CC(N)=O)C(=O)N[C@@H](CC(N)=O)C(=O)N[C@@H](Cc3ccc(O)cc3)C(=O)N[C@H](C(=O)N[C@@H](CO)C(=O)N[C@@H](CC(C)C)C(=O)N[C@H](C(=O)N[C@@H](Cc3c[nH]cn3)C(=O)N[C@@H](CO)C(=O)N[C@@H](CC(C)C)C(=O)N[C@H](C(=O)N[C@@H](CCC(=O)O)C(=O)N[C@@H](CCC(=O)O)C(=O)N[C@@H](CO)C(=O)N[C@@H](CCC(N)=O)C(=O)N[C@@H](CC(N)=O)C(=O)N[C@@H](CCC(N)=O)C(=O)N[C@@H](CCC(N)=O)C(=O)N[C@@H](CCC(=O)O)C(=O)N[C@@H](CCCCN)C(=O)N[C@@H](CC(N)=O)C(=O)N[C@@H](CCC(=O)O)C(=O)N[C@@H](CCC(N)=O)C(=O)N[C@@H](CCC(=O)O)C(=O)N[C@@H](CC(C)C)C(=O)N[C@@H](CC(C)C)C(=O)O)[C@@H](C)CC)[C@@H](C)CC)[C@@H](C)O)[C@@H](C)CC)CS2)C(N)=O)N1)[C@@H](C)CC)[C@@H](C)O)[C@@H](C)CC)C(=O)N[C@@H](CCC(=O)O)C(=O)N[C@@H](CCC(=O)O)C(=O)N[C@@H](CO)C(=O)N[C@@H](CCC(N)=O)C(=O)N[C@@H](CC(N)=O)C(=O)N[C@@H](CCC(N)=O)C(=O)N[C@@H](CCC(N)=O)C(=O)N[C@@H](CCC(=O)O)C(=O)N[C@@H](CCCCN)C(=O)N[C@@H](CC(N)=O)C(=O)N[C@@H](CCC(=O)O)C(=O)N[C@@H](CCC(N)=O)C(=O)N[C@@H](CCC(=O)O)C(=O)N[C@@H](CC(C)C)C(=O)N[C@@H](CC(C)C)C(=O)O (stereo partly drawn) [Compound 3α3-C34]
IC50 (HIV-1 NL4-3): 0.73 nM | IC50 (HIV-1 89.6): 10.2 nM | IC50 (HIV-1 pNLHxB): 0.76 nM | IC50 (HIV-1 92MW965.26): 0.16 nM | IC50 (HIV-1 92UG024.2): 0.6 nM | IC50 (HIV-1 92HT599.24): 0.25 nM | IC50 (T20-resistant virus): 0.47 nM | IC50 (NL4-3 (MT-4)): 1.59 nM | IC50 (T-20 Resistant Virus): 0.34 nM | Ratio (T-20 Resistant Virus): 0.21
